# Measured values from article PMC10451632, “Site Mutation Improves the Expression and Antimicrobial Properties of Fungal Defense” (Antibiotics, 2023).
# Bridge positions count the residues as written; N and C are the ends. Peptide text beside a SMILES is read from it.
# How the values were obtained:
# human keratinocyte HaCaT = experiment: Cytotoxicity, MTT assay; format: cell-based; conditions: HaCaT cells, at 128 mg/mL (so in the source)
# Procedure: (§1) The cytotoxicity of PN7 was evaluated by MTT (Beyotime, Shanghai, China) assay.
# [1] = system: mouse macrophages RAW264.7; experiment: Cytotoxicity, MTT assay; format: cell-based
# Procedure: as §1
smiles,measurement,setting,value
"CC[C@H](C)[C@@H]1NC(=O)[C@H](CO)NC(=O)[C@H](CCCCN)NC(=O)[C@@H]2CSSC[C@@H](C(=O)N[C@@H](Cc3ccc(O)cc3)C(=O)O)NC(=O)[C@H](CCCCN)NC(=O)[C@@H]3CSSC[C@H](NC(=O)[C@H](CCCNC(=N)N)NC(=O)CNC(=O)[C@H](CC(=O)O)NC(=O)[C@H](CC(=O)O)NC(=O)[C@H](CCC(=O)O)NC(=O)[C@H](Cc4ccc(O)cc4)NC(=O)[C@H](Cc4c[nH]c5ccccc45)NC(=O)[C@@H]4CCCN4C(=O)CNC(=O)[C@H](CC(N)=O)NC(=O)[C@@H](NC(=O)CNC(=O)[C@H](Cc4ccccc4)NC(=O)CN)CSSC[C@H](NC(=O)[C@H](Cc4ccc(O)cc4)NC(=O)CNC(=O)CNC(=O)[C@H](CCCCN)NC(=O)[C@H](Cc4ccc(O)cc4)NC(=O)CNC(=O)[C@H](CCCCN)NC1=O)C(=O)N[C@@H](C)C(=O)N[C@@H](CCCCN)C(=O)NCC(=O)NCC(=O)N[C@@H](Cc1ccccc1)C(=O)N[C@@H](C(C)C)C(=O)N3)C(=O)N[C@@H](Cc1c[nH]cn1)C(=O)N[C@@H](CC(N)=O)C(=O)N[C@@H](Cc1c[nH]cn1)C(=O)N2 [PN7] (H-GFGCNGPWYEDDGRCHNHCKSIKGYKGGYCAKGGFVCKCY-OH; disulfide 4-30, 15-37, 19-39 (inferred); N-terminus and C-terminus assumed)",cell viability,human keratinocyte HaCaT,85.36%
same,survival,"[1]; RAW264.7 and HaCaT cells (Figure 6B,C), 128 μg/mL",> 85%
same,cell viability,"[1]; RAW264.7 cells, MTT, at 128 mg/mL (so in the source)",92.77%
